Source: patent US8252737B2, “Antimicrobial peptides and methods of use” (priority 2004, dated 2012)
Converted amounts (≈) assume the structure as drawn. Square brackets hold non-standard residues; d marks the D form. Peptide text beside a SMILES is read from it.

Experiments:
[1] = system: gram-negative bacteria; assay: MIC, microtiter dilution, Gram-negative bacteria (geometric mean of 6 strains); assay type: cell-based; conditions: for MIC (μg/ml) Gram-negative: geometric mean MIC, Table 9; for MIC (μg/ml) GM: geometric mean of MIC values from all 6 Gram-negative strains of Table 11; for fold improvement on the average MIC compared to V681: gram-negative bacteria, geometric mean comparison, Table 7
Outline: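 Microtiter broth dilution in LB no-salt or Mueller-Hinton broth (brain heart infusion for P. aeruginosa clinical isolates, inoculum 1×10^6 CFU/ml); overnight 37° C. cultures diluted, plates incubated 37° C. 24 h. MIC is lowest peptide concentration inhibiting growth; value is geometric mean over 6 strains.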

[2] = Circular dichroism spectroscopy of helical structure (benign buffer and 50% TFE); assay type: physicochemical
Outline: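 Peptide CD spectra at 25 °C, 190–250 nm, in benign buffer (50 mM KH2PO4/K2HPO4, 100 mM KCl, pH 7) and in the same buffer with 50% TFE. Samples were a 10-fold dilution of ~500 μM stock. Mean residue molar ellipticity at 222 nm gave relative α-helicity.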

[3] = 25° C., relative to NAL in 50% TFE
[4] = 25° C., benign buffer (100 mM KCl, 50 mM PO4 pH 7.0)
[5] = 25° C., benign buffer diluted 1:1 (v/v) with TFE
[6] = 25° C., benign buffer, relative to NAL in 50% TFE
[7] = 5° C., 100 mM KCl, 50 mM PO4 pH 7.4
[8] = 5° C., relative to D-V681 in 50% TFE
[9] = 5° C., benign buffer pH 7.4 containing 50% TFE
[10] = 5° C., pH 7.4 benign, relative to D-V681 in 50% TFE

| Compound | MIC (μg/ml) Gram-negative [1] | % helix 50% TFE [2, 3] | [θ]222 Benign [2, 4] | [θ]222 50% TFE [2, 5] | % helix Benign [2, 6] | geometric mean MIC against Gram-negative bacteria ([1]; 6 strains of Table 7) | MIC (μg/ml) GM [1] | fold improvement on the average MIC compared to V681 [1] | [θ]222 Benign [2, 7] | % helix 50% TFE [2, 8] | [θ]222 50% TFE [2, 9] | % helix Benign [2, 10] |
| --- | --- | --- | --- | --- | --- | --- | --- | --- | --- | --- | --- | --- |
| CC[C@H](C)[C@H](NC(=O)[C@H](C)NC(=O)[C@H](CCCCN)NC(=O)[C@H](CC(C)C)NC(=O)[C@H](C)NC(=O)[C@@H](NC(=O)[C@H](Cc1c[nH]cn1)NC(=O)[C@H](CC(C)C)NC(=O)[C@@H](NC(=O)[C@@H](NC(=O)[C@H](CCCCN)NC(=O)[C@@H](CO)NC(=O)[C@H](C)NC(=O)[C@H](CO)NC(=O)[C@H](CCCCN)NC(=O)[C@H](Cc1ccccc1)NC(=O)[C@@H](NC(=O)[C@H](CCCCN)NC(=O)[C@H](CC(C)C)NC(=O)[C@H](Cc1ccccc1)NC(=O)[C@H](CO)NC(=O)[C@H](CCCCN)NC(=O)[C@H](Cc1c[nH]c2ccccc12)NC(=O)[C@H](CCCCN)NC(C)=O)[C@@H](C)O)[C@@H](C)O)C(C)C)[C@@H](C)O)C(=O)N[C@@H](CO)C(=O)N[C@@H](CO)C(N)=O [NSD] (Ac-KWKSFLKTFKSA[dS]KTVLHTALKAISS-NH2) | 6.3 µg/mL (≈ 2.14 µM) | 77% | −1,700 deg · cm^2 · dmol^−1 | −22,200 deg · cm^2 · dmol^−1 | 6% | – | – | – | – | – | – | – |
| Ac-KWKSFLKTFKSAGKTVLHTALKAISS-NH2 [NG] | 4.1 µg/mL | 84% | – | −24,350 deg · cm^2 · dmol^−1 | 8% | – | – | – | – | – | – | – |
| CC[C@H](C)[C@H](NC(=O)[C@H](C)NC(=O)[C@H](CCCCN)NC(=O)[C@H](CC(C)C)NC(=O)[C@H](C)NC(=O)[C@@H](NC(=O)[C@H](Cc1c[nH]cn1)NC(=O)[C@H](CC(C)C)NC(=O)[C@@H](NC(=O)[C@@H](NC(=O)[C@H](CCCCN)NC(=O)[C@H](C)NC(=O)[C@H](C)NC(=O)[C@H](CO)NC(=O)[C@H](CCCCN)NC(=O)[C@H](Cc1ccccc1)NC(=O)[C@@H](NC(=O)[C@H](CCCCN)NC(=O)[C@H](CC(C)C)NC(=O)[C@H](Cc1ccccc1)NC(=O)[C@H](CO)NC(=O)[C@H](CCCCN)NC(=O)[C@H](Cc1c[nH]c2ccccc12)NC(=O)[C@H](CCCCN)NC(C)=O)[C@@H](C)O)[C@@H](C)O)C(C)C)[C@@H](C)O)C(=O)N[C@@H](CO)C(=O)N[C@@H](CO)C(N)=O [NAL] | 3.8 µg/mL (≈ 1.3 µM) | 100% | – | −28,950 deg · cm^2 · dmol^−1 | 12% | – | – | – | – | – | – | – |
| CC[C@H](C)[C@H](NC(=O)[C@H](C)NC(=O)[C@H](CCCCN)NC(=O)[C@H](CC(C)C)NC(=O)[C@H](C)NC(=O)[C@@H](NC(=O)[C@H](Cc1c[nH]cn1)NC(=O)[C@H](CC(C)C)NC(=O)[C@@H](NC(=O)[C@@H](NC(=O)[C@H](CCCCN)NC(=O)[C@@H](CCCCN)NC(=O)[C@H](C)NC(=O)[C@H](CO)NC(=O)[C@H](CCCCN)NC(=O)[C@H](Cc1ccccc1)NC(=O)[C@@H](NC(=O)[C@H](CCCCN)NC(=O)[C@H](CC(C)C)NC(=O)[C@H](Cc1ccccc1)NC(=O)[C@H](CO)NC(=O)[C@H](CCCCN)NC(=O)[C@H](Cc1c[nH]c2ccccc12)NC(=O)[C@H](CCCCN)NC(C)=O)[C@@H](C)O)[C@@H](C)O)C(C)C)[C@@H](C)O)C(=O)N[C@@H](CO)C(=O)N[C@@H](CO)C(N)=O [NKD] | 7.7 µg/mL (≈ 2.57 µM) | 82% | −2,000 deg · cm^2 · dmol^−1 | −23,600 deg · cm^2 · dmol^−1 | 7% | – | – | – | – | – | – | – |
| CC[C@H](C)[C@H](NC(=O)[C@H](C)NC(=O)[C@H](CCCCN)NC(=O)[C@H](CC(C)C)NC(=O)[C@H](C)NC(=O)[C@@H](NC(=O)[C@H](Cc1cnc[nH]1)NC(=O)[C@H](CC(C)C)NC(=O)[C@@H](NC(=O)[C@@H](NC(=O)[C@H](CCCCN)NC(=O)[C@H](CCCCN)NC(=O)[C@H](C)NC(=O)[C@H](CO)NC(=O)[C@H](CCCCN)NC(=O)[C@H](Cc1ccccc1)NC(=O)[C@@H](NC(=O)[C@H](CCCCN)NC(=O)[C@H](CC(C)C)NC(=O)[C@H](Cc1ccccc1)NC(=O)[C@H](CO)NC(=O)[C@H](CCCCN)NC(=O)[C@H](Cc1c[nH]c2ccccc12)NC(=O)[C@H](CCCCN)NC(C)=O)[C@@H](C)O)[C@@H](C)O)C(C)C)[C@@H](C)O)C(=O)N[C@@H](CO)C(=O)N[C@@H](CO)C(N)=O [NKL] | – | 91% | −1,450 deg · cm^2 · dmol^−1 | −26,250 deg · cm^2 · dmol^−1 | 5% | 3.1 µg/mL | 3.9 µg/mL (≈ 1.3 µM) | 2.8 | −1400 deg · cm^2 · dmol^−1 | 96% | −27000 deg · cm^2 · dmol^−1 | 5% |
| CC[C@H](C)[C@H](NC(=O)[C@H](C)NC(=O)[C@H](CCCCN)NC(=O)[C@H](CC(C)C)NC(=O)[C@H](C)NC(=O)[C@@H](NC(=O)[C@H](Cc1c[nH]cn1)NC(=O)[C@H](CC(C)C)NC(=O)[C@@H](NC(=O)[C@@H](NC(=O)[C@H](CCCCN)NC(=O)[C@@H](NC(=O)[C@H](C)NC(=O)[C@@H](CCCCN)NC(=O)[C@H](CCCCN)NC(=O)[C@H](Cc1ccccc1)NC(=O)[C@@H](NC(=O)[C@H](CCCCN)NC(=O)[C@H](CC(C)C)NC(=O)[C@H](Cc1ccccc1)NC(=O)[C@H](CO)NC(=O)[C@H](CCCCN)NC(=O)[C@H](Cc1c[nH]c2ccccc12)NC(=O)[C@H](CCCCN)NC(C)=O)[C@@H](C)O)C(C)C)[C@@H](C)O)C(C)C)[C@@H](C)O)C(=O)N[C@@H](CO)C(=O)N[C@@H](CO)C(N)=O [PKD] (Ac-KWKSFLKTFK[dK]AVKTVLHTALKAISS-NH2) | 2.6 µg/mL (≈ 0.866 µM) | 96% | −2,500 deg · cm^2 · dmol^−1 | −27,800 deg · cm^2 · dmol^−1 | 9% | – | – | 3.4 | – | – | – | – |
| Ac-KWKSFLKTFKSASKTVLHTALKAISS-NH2 [NSL] | 4.2 µg/mL | 95% | −1,300 deg · cm^2 · dmol^−1 | −27,550 deg · cm^2 · dmol^−1 | 4% | – | – | – | – | – | – | – |
| CC[C@H](C)[C@H](NC(=O)[C@H](C)NC(=O)[C@H](CCCCN)NC(=O)[C@H](CC(C)C)NC(=O)[C@H](C)NC(=O)[C@@H](NC(=O)[C@H](Cc1c[nH]cn1)NC(=O)[C@H](CC(C)C)NC(=O)[C@@H](NC(=O)[C@@H](NC(=O)[C@H](CCCCN)NC(=O)[C@@H](NC(=O)[C@H](C)NC(=O)[C@H](CO)NC(=O)[C@H](CCCCN)NC(=O)[C@H](Cc1ccccc1)NC(=O)[C@@H](NC(=O)[C@H](CCCCN)NC(=O)[C@H](CC(C)C)NC(=O)[C@H](Cc1ccccc1)NC(=O)[C@H](CO)NC(=O)[C@H](CCCCN)NC(=O)[C@H](Cc1c[nH]c2ccccc12)NC(=O)[C@H](CCCCN)NC(C)=O)[C@@H](C)O)C(C)C)[C@@H](C)O)C(C)C)[C@@H](C)O)C(=O)N[C@@H](CO)C(=O)N[C@@H](CO)C(N)=O [Peptide V681, reference compound] | 8.8 µg/mL (≈ 2.97 µM) | 94% | −12,900 deg · cm^2 · dmol^−1 | −27,300 deg · cm^2 · dmol^−1 | 45% | – | 5.0 µg/mL (≈ 1.69 µM) | – | −13000 deg · cm^2 · dmol^−1 | 99% | −27950 deg · cm^2 · dmol^−1 | 46% |
